One experiment concerns human preadipocytes. As to conditions: human preadipocytes in primary cell culture; cited from earlier work.
For experiment [1], the system named is adipose tissue and adipocytes. The experiment is described as follows: Randomized controlled trial in (db-/db-) mice: histologic examination of treated skin and subcutaneous fat. In kind it is in vivo, mouse. Conditions: treated flank, after 21 days of 5 mM topical treatment. The protocol:
(§1) A randomized controlled trial was conducted on (db-/db-) mice. Mice six weeks old were prospectively randomized into groups and assigned to the following treatment conditions (n=5 animals per group): [table] At the start of the study, hair on the right flank of each animal was clipped and depilated. Animals were kept in identical conditions and fed ab libitum. Animals were weighed daily. Following 21 consecutive days of treatment, samples of skin and adjacent fat were obtained from the treated flanks, fixed in formalin, and stained with hematoxylin and eosin for histologic examination.

A short description of experiment [2]: Randomized controlled trial in (db-/db-) mice, topical to flank: body weight change. It is filed as in vivo, mouse. As to conditions: 21-day study; for Absolute weight change / Relative weight change: 5 mM topical, 0.1 cc to flank daily. On the procedure: as §1
Another experiment deals with dorsocervical fat pad. The experiment is described as follows: Randomized double-blind study in HIV lipodystrophy subjects, dorsocervical fat by US/CT. As to conditions: human, e.g. 0.03% in transdermal vehicle once a day, e.g. after 3 months. It is filed as in vivo. From the text: The following experiment describes a randomized, double-blind study in human subjects to test whether locally administered Tafluprost reduces fat in the dorsocervical fat pad of HIV-seropositive patients on antiretroviral therapy who are suffering from HIV lipodystrophy. Eligible subjects (for example, n=40) with HIV lipodystrophy and abnormal accumulation of fat on the dorsal neck are entered into a randomized double-blind study. Subjects are randomized in 1:1 fashion to receive either Tafluprost, for example, 0.03%, in a suitable transdermal vehicle, or vehicle alone. The vehicle is, for example, Lipoderm® (PCCA, Houston, Tex.). Unit-dose syringes (for example, 0.5 ml per syringe) are furnished to subjects by a study pharmacist; syringes are unlabeled as to the presence of Tafluprost or vehicle. Subjects are instructed to apply, once a day, the contents of one syringe to the affected area on the back of the neck. Serial ultrasound (US) and/or computed tomography (CT) scans are conducted at the beginning of the study and then at monthly intervals. Treatment continues for 6 months.

Experiment [3] deals with peroxisome proliferator-activated receptor-gamma (PPARγ), CCAAT-enhancer-binding protein α (C/EBPα), and lipoprotein lipase. As to conditions: human preadipocytes; no statistical differences; cited from earlier work.

SMILES strings stand for the structures. Entries after “also recorded” stand apart in the source; their conditions may differ. Marks after values point to notes of the source that are not given here.

As to `CC(C)OC(=O)CCC/C=C\C[C@@H]1[C@@H](/C=C/C(F)(F)COc2ccccc2)[C@H](O)C[C@@H]1O` [Tafluprost], in the experiment on human preadipocytes, the adipocyte differentiation was 40 % of control. Besides, the “adipose thickness and adipocyte size in histologic sections, compared to Vehicle” value in experiment [1] is “reduced adipose thickness and adipocyte size; also recorded: inhibited adipose tissue and adipocytes”. In experiment [2], the Absolute weight change is −2.4* g and the Relative weight change is listed as −8.2% over Day 0. Further, the weight loss result in experiment [2] (topical) is listed as “about 8 % of baseline body weight”. Also, the “reduction in depth and/or cross-sectional area of dorsocervical fat by serial US or CT, compared to vehicle alone” value in the experiment with dorsocervical fat pad is given as “more reduction in the depth and/or cross-sectional area of dorsocervical fat”.
For `CCNC(=O)CCC/C=C\C[C@@H]1[C@@H](/C=C/[C@@H](O)CCc2ccccc2)[C@H](O)C[C@@H]1O` [Bimatoprost], in the experiment with human preadipocytes, the adipocyte differentiation is 30 % of control. In experiment [3], the “inhibition of expression of adipogenic genes PPARγ, C/EBPα and lipoprotein lipase” value was “slightly more inhibition than Tafluprost”. For the same compound, the “adipose thickness and adipocyte size in histologic sections, compared to Vehicle” value in experiment [1] is recorded as “did not show these effects”. Besides, in experiment [2], the Absolute weight change came out at 6.4 g and the Relative weight change is 22.9% over Day 0. The weight gain in experiment [2] (topical) was 23-24 % of baseline body weight.

The values are drawn from patent US8569376B2, “Methods and compositions for reducing body fat and adipocytes” (Topokine Therapeutics, Inc., priority 2011, dated 2013).
